pIC50: −log10 of the molar value. Structures can show the parent of a compound that is named as a salt.
Target: NMDA receptor
Assay: NMDA receptor binding assay using [3H]CPP as antagonist ligand
Settings: in vitro, essentially as Murphy et al, J. Pharm. Exp. Ther. 240:778 (1987)
From the text: The activity of the compounds of the formula I is shown in vitro in an NMDA receptor binding assay based on the use of [^3 H]CPP as antagonist ligand in a manner essentially as set out by B. E. Murphy, et al, in J. Pharm. Exp. Ther. 240:778 (1987).

pIC50	Structure (SMILES)
> 4.00	NC(C(=O)O)c1ccc(CC(=O)O)cc1 (racemic) [Example I1, 1,4-Benzenediacetic acid, α-amino-, (±)]
> 4.00	NC(C(=O)O)c1ccc(O)c(CC(=O)O)c1 (stereo not drawn) [Example I2, α-Amino-4-hydroxy-1,3-benzenediacetic acid]
> 4.00	NC(C(=O)O)c1ccc(CC(=O)O)c(O)c1 (racemic) [Example I3, 1,4-Benzenediaoetic acid, α-amino-2-hydroxy-,-monohydrochloride, (±)]
